{"source": "paper PMC11053447", "about": "“Human ABC and SLC Transporters: The Culprit Responsible for Unspecific PSMA-617 Uptake?” (Pharmaceuticals, 2024)", "key": {"[1]": {"biological_target": "MRP1 (Homo sapiens, UniProt P33527)", "sequence (P33527 whole entry)": "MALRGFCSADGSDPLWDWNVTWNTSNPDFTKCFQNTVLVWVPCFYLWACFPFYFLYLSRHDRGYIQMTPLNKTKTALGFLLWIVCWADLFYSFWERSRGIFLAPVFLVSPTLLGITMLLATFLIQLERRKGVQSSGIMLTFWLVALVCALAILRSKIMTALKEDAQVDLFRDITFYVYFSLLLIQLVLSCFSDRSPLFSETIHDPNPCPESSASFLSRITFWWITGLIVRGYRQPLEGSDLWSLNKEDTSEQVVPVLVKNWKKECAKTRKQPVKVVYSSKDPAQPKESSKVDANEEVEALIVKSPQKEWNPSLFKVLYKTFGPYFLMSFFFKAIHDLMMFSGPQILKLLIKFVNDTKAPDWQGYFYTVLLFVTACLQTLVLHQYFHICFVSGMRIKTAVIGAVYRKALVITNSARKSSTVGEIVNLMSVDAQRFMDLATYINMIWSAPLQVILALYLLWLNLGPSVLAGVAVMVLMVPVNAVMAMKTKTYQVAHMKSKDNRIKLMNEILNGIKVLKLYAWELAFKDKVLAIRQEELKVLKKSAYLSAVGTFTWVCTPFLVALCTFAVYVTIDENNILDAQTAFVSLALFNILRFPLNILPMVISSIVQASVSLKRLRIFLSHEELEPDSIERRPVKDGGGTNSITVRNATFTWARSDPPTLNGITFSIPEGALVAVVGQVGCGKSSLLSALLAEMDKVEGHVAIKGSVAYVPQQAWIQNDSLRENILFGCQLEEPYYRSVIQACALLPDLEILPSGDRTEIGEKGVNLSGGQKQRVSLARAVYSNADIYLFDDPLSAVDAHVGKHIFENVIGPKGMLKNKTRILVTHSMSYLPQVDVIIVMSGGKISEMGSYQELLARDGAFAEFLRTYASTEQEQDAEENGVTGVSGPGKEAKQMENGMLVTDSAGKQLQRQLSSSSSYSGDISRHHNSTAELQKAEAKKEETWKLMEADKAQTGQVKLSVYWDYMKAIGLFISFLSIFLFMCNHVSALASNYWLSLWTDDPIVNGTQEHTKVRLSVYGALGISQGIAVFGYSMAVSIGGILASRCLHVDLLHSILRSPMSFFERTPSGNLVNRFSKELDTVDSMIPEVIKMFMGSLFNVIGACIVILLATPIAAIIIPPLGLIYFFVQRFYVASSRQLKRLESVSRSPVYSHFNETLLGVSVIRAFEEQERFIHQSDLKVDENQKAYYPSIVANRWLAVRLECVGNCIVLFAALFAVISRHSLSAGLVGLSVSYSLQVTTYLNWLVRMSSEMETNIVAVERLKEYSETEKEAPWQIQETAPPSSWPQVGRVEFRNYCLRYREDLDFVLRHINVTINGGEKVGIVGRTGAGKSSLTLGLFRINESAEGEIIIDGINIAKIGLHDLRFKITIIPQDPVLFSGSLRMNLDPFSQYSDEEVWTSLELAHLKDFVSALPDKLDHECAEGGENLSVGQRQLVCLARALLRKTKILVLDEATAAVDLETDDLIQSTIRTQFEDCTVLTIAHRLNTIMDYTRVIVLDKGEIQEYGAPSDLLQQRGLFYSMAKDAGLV", "description": "The incubations were carried out in the presence of 4 mM ATP or AMP to distinguish between transporter-mediated uptake and passive diffusion into the vesicles. […] Afterwards, the reaction mixtures were pre-incubated for 15 min at 37 °C for MRP1 or at 32 °C for BCRP, MDR1 and MRP4, respectively. The transporter assay was initiated through the addition of 25 μL of pre-warmed 12 mM MgATP (or 12 mM AMP in assay buffer as a background control). The reactions were quenched through the addition of 200 μL of ice-cold washing buffer and immediate filtration via glass fiber filters mounted onto a 96-well plate (filter plate). The filters were washed (5 × 200 μL of ice-cold washing buffer) and dried, and the amount of probe substrate inside the filtered vesicles was determined using LSC. The experiments were conducted in triplicate.\nCalculation of ATP-dependent transport and inhibition for vesicular transport inhibition\nFor all wells the amount of the translocated probe substrate was determined in counts per minute (cpm).\nATP-dependent transport (pmol/mg protein/min) is calculated for each concentration using the following\n𝐴𝑐𝑐𝐴𝑇𝑃 ∙ 𝑉 ∙ 𝐶𝐶 𝐴𝑐𝑐𝐴𝑀𝑃 ∙𝑉 ∙𝐶𝐶\n𝐴𝑇𝑃 − 𝑑𝑒𝑝𝑒𝑛𝑑𝑒𝑛𝑡 𝑎𝑐𝑐𝑢𝑚𝑢𝑙𝑎𝑡𝑖𝑜𝑛 = ( 𝑇𝐶𝑃𝑀 𝑠𝑢𝑏) − ( 𝑇𝐶𝑃𝑀 𝑠𝑢𝑏)\n• AccATP: probe substrate accumulation with ATP (cpm)\n• AccAMP: probe substrate accumulation with AMP (cpm)\n• Tcpm: cpm in dosing solution V: volume per well (µL)\n• CCsub: probe substrate concentration (µM)\n• Prot: total protein per well (mg)\n• t: incubation time (min)\nRelative ATP-dependent transport (%) values were calculated using the following equation:\n𝑅𝑒𝑙𝑎𝑡𝑖𝑣𝑒 𝐴𝑇𝑃 − 𝑑𝑒𝑝𝑒𝑛𝑑𝑒𝑛𝑡 𝑡𝑟𝑎𝑛𝑠𝑝𝑜𝑟𝑡 (%) = 𝐴 − 𝐵 ∙ 100\n• A: amount of translocated substrate in the presence of test substance (TS) and ATP\n• B: amount of translocated substrate in the presence of test substance (TS) and AMP\n• C: amount of translocated substrate in the presence of solvent and ATP\n• D: amount of translocated substrate in the presence of solvent and AMP\nRelative inhibition (%) is calculated by setting probe substrate transport in the absence of test substance as\n𝑅𝑒𝑙𝑎𝑡𝑖𝑣𝑒 𝑖𝑛ℎ𝑖𝑏𝑖𝑡𝑖𝑜𝑛 (%) = 𝐴𝑐𝑐𝑆𝑝𝑒𝑐𝑖𝑓𝑖𝑐,𝑥 ∙100\n• Accspecific,x: transporter specific accumulation for a given sample (pmol/mg/min)\n• Accspecific,vehicle: transporter specific accumulation for a solvent control (pmol/mg/min)"}, "[2]": {"biological_target": "T1, human OAT4 (Homo sapiens, UniProt Q9NSA0)", "T1 sequence (Q9NSA0 1-550)": "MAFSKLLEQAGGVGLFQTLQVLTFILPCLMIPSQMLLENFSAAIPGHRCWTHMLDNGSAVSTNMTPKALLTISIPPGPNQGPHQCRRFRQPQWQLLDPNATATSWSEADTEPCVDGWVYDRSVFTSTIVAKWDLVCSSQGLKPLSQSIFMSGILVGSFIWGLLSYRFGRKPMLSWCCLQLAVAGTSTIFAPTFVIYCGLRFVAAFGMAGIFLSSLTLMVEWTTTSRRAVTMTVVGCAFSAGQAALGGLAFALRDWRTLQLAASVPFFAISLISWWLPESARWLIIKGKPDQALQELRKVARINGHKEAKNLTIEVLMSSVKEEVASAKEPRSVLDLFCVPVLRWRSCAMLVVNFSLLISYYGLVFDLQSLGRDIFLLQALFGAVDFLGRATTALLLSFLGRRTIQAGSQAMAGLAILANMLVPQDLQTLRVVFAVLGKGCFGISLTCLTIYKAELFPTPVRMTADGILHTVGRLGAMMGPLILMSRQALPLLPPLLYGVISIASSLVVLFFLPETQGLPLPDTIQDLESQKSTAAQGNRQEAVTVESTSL", "assay": "SLC transporter substrate assay, HEK293-OAT4-LV vs control HEK293-Mock-LV cells", "settings": "1 min"}, "[3]": {"biological_target": "T2, human PEPT2 (Homo sapiens, UniProt Q16348)", "T2 sequence (Q16348 1-729)": "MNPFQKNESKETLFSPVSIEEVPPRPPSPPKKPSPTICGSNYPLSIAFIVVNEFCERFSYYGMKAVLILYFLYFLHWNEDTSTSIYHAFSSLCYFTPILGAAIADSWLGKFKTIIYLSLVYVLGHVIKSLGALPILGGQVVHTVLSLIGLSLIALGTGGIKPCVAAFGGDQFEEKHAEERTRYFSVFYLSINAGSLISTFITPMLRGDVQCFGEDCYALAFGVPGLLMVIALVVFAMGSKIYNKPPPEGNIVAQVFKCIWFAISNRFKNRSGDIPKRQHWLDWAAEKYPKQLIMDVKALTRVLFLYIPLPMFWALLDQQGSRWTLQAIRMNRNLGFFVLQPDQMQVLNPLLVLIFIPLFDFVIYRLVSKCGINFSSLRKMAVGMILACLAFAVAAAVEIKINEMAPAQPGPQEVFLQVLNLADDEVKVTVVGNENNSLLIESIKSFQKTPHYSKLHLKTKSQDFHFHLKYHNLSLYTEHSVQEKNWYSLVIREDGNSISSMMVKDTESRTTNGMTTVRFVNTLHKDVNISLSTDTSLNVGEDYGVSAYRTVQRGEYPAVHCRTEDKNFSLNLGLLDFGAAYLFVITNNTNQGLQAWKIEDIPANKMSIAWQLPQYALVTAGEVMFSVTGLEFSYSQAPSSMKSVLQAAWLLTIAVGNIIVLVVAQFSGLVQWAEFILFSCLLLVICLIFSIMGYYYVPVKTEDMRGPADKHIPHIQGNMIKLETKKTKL", "assay": "SLC transporter substrate assay, CHO-K1-PEPT2 vs control CHO-K1 cells", "settings": "8 min", "experimental": "The described cells were plated onto standard 24-well tissue culture plates at densities of 5 × 10^5 cells/well. […] Before starting the experiment, the cells were prepared by removing the medium and washing the cells twice with 300 µL of assay buffer. […] The cells were lysed by adding 300 µL of 0.1N NaOH, they were incubated for 10 min at 37 °C and 100 µL samples were taken from all the wells.\nThe amount of protein in each well was quantified using the BCA kit for protein determination (Sigma-Aldrich, St Louis, MO, USA). Positive controls were performed using a separate 96-well plate format according to Table S8 in SI4.\nSI4. Results of transporter substrate assays (SLC)\nTable S8: Parameters of positive controls, control cell lines and plating for SLC transporters assays.\nKH: Krebs-Henseleit buffer, HBSS: Hank's balanced salt solution, MES: 2 -(N-morpholino) ethanesulfonic acid, cGMP:\nGuanosine cyclic phosphate, E3S: Estrone -3-sulfate, Gly-Sar: Glycylsarcosine, MPP+: 1-methyl-4-phenylpyridinium.\nCalculation of fold accumulation values for SLC transporter substrate assays The fold accumulation value was defined as the ratio of uptake of the test substance (TS) or probe substrate into transfected and control cells. If the fold accumulation is > 2 and can be inhibited by a known inhibitor of the transporter, the test substance can be considered as a substrate of the respective transporter.\nFold accumulation = UPTTRP\n• UPTTRP: accumulated amount of test substance (TS) or probe substrate in transfected cells normalized by protein content […]\n• UPTCTRL: accumulated amount of test substance (TS) or probe substrate in control cells normalized by protein content […]\nPositive control conducted at pH 5.0.\nGly-Sar: Glycylsarcosine."}, "[4]": {"settings": "positive control inhibitor 200.0 µM, E217βG probe, mean (n=3) ± SD"}, "[5]": {"settings": "positive control at pH 5.0: Gly-Sar 4 µM + Cefadroxil 200 µM"}, "[6]": {"settings": "positive control at pH 5.0: Gly-Sar 4 µM"}}, "note": "Where a SMILES comes first, the peptide text is derived from it. [ ]: non-standard residue; d: D form. Sar = CNCC(=O)O", "data": [{"smiles": "CCc1oc2ccccc2c1C(=O)c1cc(Br)c(O)c(Br)c1", "note": "[Benzbromarone, benzbromarone, reference compound]", "values": [{"measurement": "inhibition at 3 min, 200 µM", "setting": "[1]; human, membrane vesicles from Sf9 cells transfected with human MRP1, […], 0.2 µM", "result": 104, "unit": "%"}, {"measurement": "ATP dependent transport", "setting": "[1]; [4]", "result": "-26.33 ± 10.19", "unit": "pmol/mg/min"}, {"measurement": "Relative ATP dependent transport", "setting": "[1]; [4]", "result": "-3.87 ± 1.50 % of control"}]}, {"smiles": "C[C@]12CC[C@@H]3c4ccc(OS(=O)(=O)[O-])cc4CC[C@H]3[C@@H]1CCC2=O.[Na+]", "note": "[E3S, estrone-3-sulfate sodium salt, reference compound]", "values": [{"measurement": "Fold accumulation", "setting": "[2]; positive control: E3S 1 µM + Benzbromarone 300 µM", "result": 5.12}, {"measurement": "Fold accumulation", "setting": "[2]; positive control: E3S 1 µM", "result": 24.16}]}, {"smiles": "CN(CC(=O)O)C(=O)CN", "note": "[Gly-Sar, glycylsarcosine, reference compound] (H-Gly-[Sar]-OH)", "values": [{"measurement": "Accumulation in PEPT2 transporter expressing cells", "setting": "[3]; [5]", "result": 263.67, "unit": "cpm"}, {"measurement": "Accumulation in control cells", "setting": "[3]; [5]", "result": 34.33, "unit": "cpm"}, {"measurement": "Accumulation, active transport", "setting": "[3]; [5]", "result": 229.33, "unit": "cpm"}, {"measurement": "Fold accumulation", "setting": "[3]; [5]", "result": 7.68}, {"measurement": "Accumulation in PEPT2 transporter expressing cells", "setting": "[3]; [6]", "result": 1570.00, "unit": "cpm"}, {"measurement": "Accumulation in control cells", "setting": "[3]; [6]", "result": 31.33, "unit": "cpm"}, {"measurement": "Accumulation, active transport", "setting": "[3]; [6]", "result": 1538.67, "unit": "cpm"}, {"measurement": "Fold accumulation", "setting": "[3]; [6]", "result": 50.11}]}]}
